Values belong to the molecule of their own block, whether it stands above or below them.
What was measured:
[1] = Polymers generated at end of OSI experiment in fish oil, by LC; settings: FG30TG oil, end of stabilization experiment
Procedure: The compounds of formulae (6) and (9) (see Table 14 below), compound of formula (4) (see Table 15 below) and compound of formula (8) (see Table 16 below) were used at different times in the Oxidative Stability instruments under similar operational conditions used for fish oil evaluations. MNT and the oil without any antioxidants (“Blank”) were always used to compare. Also, the synergistic effect of only oil soluble compounds with ascorbyl palmitate was determined using the OSI values. The polymers generated at the end of the experiment were determined by LC (LC=liquid chromatography). Polymers generated at the end of the stabilization experiment of fish oil with compounds of formulae 6 and 9 and AP are shown in Table 24. A combination of complex, polymeric compounds generated at the end of the oxidation cascade of unsaturated fatty acids indicate the levels of overall oxidation of the matrix. The generation of such polymers in fish oil containing these novel antioxidant compounds could be reduced considerably when AP was added as a synergistic compound (Table 24).

[2] = Oxipres antioxidant efficacy value (EV) in fish meal; settings: Oxipres 70° C., 5 bar O2, equimolar to BHT; EV relative to BHT (EV=1)
Procedure: Oxidative stability was assessed using an Oxipres (Mikrolab Aarhus A/S, Hojbjerg, Denmark). The ML OXIPRES® is designed to monitor the oxidation of heterogeneous products. Consumption of oxygen results in a pressure drop which is measured by means of pressure transducers. The samples are heated to accelerate the process and shorten the analysis time (Mikrolab Aarhus 2012).
Sample weights were 50 g. They were loaded into the Oxipres vessels and placed inside the stainless-steel pressure vessel and sealed. The pressure vessels were purged with pure oxygen and filled to an initial oxygen pressure of 5 bar and maintained at 70° C. during measurement (D. Ying, L. Edin, L. Cheng, L. Sanguansri, M. A. Augustin, LWT—Food Science and Technology 2015, 62, 1105-1111: “Enhanced oxidative stability of extruded product containing polyunsaturated oils.”).
The oxygen pressure was recorded as function of time. After sample load and temperature rise the pressure in the device is increasing within 10 hours up to the starting pressure. Thereafter it is decreasing. Consequently, the starting pressure is considered as being the pressure after 10 hours. The analysis ends after 130 hours at 70° C. The oxygen consumption ‘O2’ of the tested sample is calculated as follows: […]
A factor of protection called ‘EV’ (Efficacy Value) was developed to quantify with a relative number (relative to BHT) the antioxidant effect of the tested candidates. EV was calculated as follows:
EV, being relative to BHT (3,5-di-tert-butyl-4-hydroxy-toluene) (EV=1), makes it possible to compare the antioxidant compounds in a defined feed application.
Each of the compounds of formulae (1) to (6) were mixed into each matrix 1, 2 or 3 (pet food, poultry meal, fish meal) in an equimolar ratio compared to BHT. Batches of 200 g feed were produced in order to handle a minimum of 30 mg of antioxidant. First, a 1% pre-dilution of the antioxidant with the feed material was made. Then this pre-dilution was added to the final batch, mixed, sieved (1.25 mm sieve) and mixed using a turbula mixer. Thereafter 55 g of the final batch were packed into polyethylene bags, and stored at 4° C. until start of the Oxipres assay. Spare sample were stored at 4° C. Compound of formula (3) was measured in all three matrices. Compound of formula (1) was measured in matrix 1 and 2. Compound of formula (2) was measured in matrix 2. Compounds of formulae (4), (5) and (6) were measured in matrix 3. An efficacy value 0.7 has been considered as acceptable, an efficacy value ≥ the efficacy value of alpha-tocopherol as good, and an efficacy value ≥ the efficacy value of BHT as very good.

[3] = Storage stability in fish oil (PV, p-AV, CD), Example 12; settings: FG30TG, 2 mg/g
Procedure: Tables 25, 26 and 27 show the PV (peroxide value), p-AV (p-anisidine value) and CD (Conjugated dienoic acid %) of the fish oil samples stabilized with compounds of formulae (6), (8) and (9), respectively.
For the storage stability study oil soluble compounds were used in fish oil at 2 mg/g level only. […] There was no considerable variation in p-AV and CD (Tables 26-27) during the storage.

[4] = Oil Stability Index in crude algal oil, Example 12; settings: for prooxidant effect in algal oil: higher levels (2 mg/g)
From the text: To evaluate the efficacy of the compounds of formulae (4), (6), (8) and (9) in algal oils, only oil soluble compounds were used. […] Protection Factors of all these compounds, including MNT, in fish oil could be improved by the addition of AP (Tables 22-23) indicating the possibility of combining AP to all these novel compounds to improve the oxidative stability of matrices containing high amounts of unsaturated fatty acids such as fish oil.

[5] = Oil Stability Index (OSI) in fish oil, Example 12; settings: for OSI / Protection Factor (%): FG30TG fish oil; for antioxidant effect (OSI) in fish oil compared with MNT: Example 12, same level of MNT
Procedure: (§1) The compounds of formulae (4), (6), (8) and (9) were evaluated primarily for their oxidative stability by the Oil Stability Index (OSI) measurements. Two different levels of these antioxidants (0.5 and 2 mg/g) were used in 5 g of natural fish oil (Product code: FG30TG) and used in the Oxidative Stability Instrument at 80° C. with the air flow rate of 40 psi. The solubility of different amounts and types of antioxidants used in OSI was checked before and after the application.
The compounds of formulae (6) and (9) (see Table 14 below), compound of formula (4) (see Table 15 below) and compound of formula (8) (see Table 16 below) were used at different times in the Oxidative Stability instruments under similar operational conditions used for fish oil evaluations. MNT and the oil without any antioxidants (“Blank”) were always used to compare. Also, the synergistic effect of only oil soluble compounds with ascorbyl palmitate was determined using the OSI values. The polymers generated at the end of the experiment were determined by LC (LC=liquid chromatography).
The Protection Factors (PF) for each compound in oil were calculated in percentage as: […]

Solubility in fish oil = type: physicochemical
Procedure: as §1, with “application. […]” for “application.”

[6] = Table 20, 2 mg/g + 0.5 mg/g of AP (ascorbyl palmitate)
[7] = Table 22, 2 mg/g + 0.5 mg/g of AP

- Solubility in fish oil, 80° C. (Solubility in fish oil; 0.5 mg/g): Soluble
- Solubility in fish oil, Room temp. (Solubility in fish oil; 0.5 mg/g): Soluble
- Solubility in fish oil, 80° C. (Solubility in fish oil; 2.0 mg/g): Soluble
- Solubility in fish oil, Room temp. (Solubility in fish oil; 2.0 mg/g): Soluble
SMILES: Cc1c(C)c2c(c(C)c1O)CCC(C)(CO)O2 (centres unmarked) [Compound of formula (6), 2-Hydroxymethyl-2,5,7,8-Tetramethyl-6-Chromanol]
- Polymers (%) ([1]; 2 mg/g + 0.5 mg/g of AP): 25.09%
- Polymers (%) ([1]; 2 mg/g, without AP): 37.37%
- EV in Fish meal [2]: 1.03
- CD (conjugated dienoic acid in %) ([3]; 4 days): 0.7%
- PV (peroxide value) ([3]; 4 days): 4.1
- p-AV (p-anisidine value) ([3]; 4 days): 10.4
- CD (conjugated dienoic acid in %) ([3]; 6 days): 0.7%
- PV (peroxide value) ([3]; 6 days): 7
- p-AV (p-anisidine value) ([3]; 6 days): 9.7
- CD (conjugated dienoic acid in %) ([3]; 8 days): 0.7%
- PV (peroxide value) ([3]; 8 days): 7.9
- p-AV (p-anisidine value) ([3]; 8 days): 10.2
- CD (conjugated dienoic acid in %) ([3]; 11 days): 0.8%
- PV (peroxide value) ([3]; 11 days): 10.2
- p-AV (p-anisidine value) ([3]; 11 days): 10.4
- CD (conjugated dienoic acid in %) ([3]; 13 days): 0.8%
- PV (peroxide value) ([3]; 13 days): 14.9
- p-AV (p-anisidine value) ([3]; 13 days): 10.3
- CD (conjugated dienoic acid in %) ([3]; 15 days): 0.8%
- PV (peroxide value) ([3]; 17 days): 18.6
- p-AV (p-anisidine value) ([3]; 17 days): 10.7
- CD (conjugated dienoic acid in %) ([3]; Initial): 0.7%
- PV (peroxide value) ([3]; Initial): 0.9
- p-AV (p-anisidine value) ([3]; Initial): 9.9
- OSI values in algal oil compared with MNT [4]: clearly lower OSI values than those of MNT
- prooxidant effect in algal oil [4]: possible prooxidant effect
- OSI ([5]; Table 14, 80° C., 0.5 mg/g): 7.05 h
- OSI ([5]; Table 14, 80° C., 2 mg/g): 7.30 h
- Protection Factor (%) ([5]; Table 17, 0.5 mg/g): 54.95%
- Protection Factor (%) ([5]; Table 17, 2 mg/g): 60.44%
- OSI [5, 6]: 11.20 h
- OSI ([5]; Table 20, 2 mg/g, without AP): 6.15 h
- Protection Factor (%) [5, 7]: 141.9%
- Protection Factor (%) ([5]; Table 22, 2 mg/g, without AP): 32.8%
- antioxidant effect (OSI) in fish oil compared with MNT [5]: comparable to the effect of MNT

- Solubility in fish oil, 80° C. (Solubility in fish oil; 0.5 mg/g): Soluble
- Solubility in fish oil, Room temp. (Solubility in fish oil; 0.5 mg/g): Soluble
- Solubility in fish oil, 80° C. (Solubility in fish oil; 2.0 mg/g): Soluble
- Solubility in fish oil, Room temp. (Solubility in fish oil; 2.0 mg/g): Soluble
SMILES: Cc1c(C)c2c(c(C)c1O)CCC(C)(CCCC(C)C)O2 (centres unmarked) [Compound of formula (9)]
- Polymers (%) ([1]; 2 mg/g + 0.5 mg/g of AP): 31.06%
- Polymers (%) ([1]; 2 mg/g, without AP): 40.34%
- CD (conjugated dienoic acid in %) ([3]; 4 days): 0.7%
- PV (peroxide value) ([3]; 4 days): 2.9
- p-AV (p-anisidine value) ([3]; 4 days): 10.5
- CD (conjugated dienoic acid in %) ([3]; 6 days): 0.7%
- PV (peroxide value) ([3]; 6 days): 7.3
- p-AV (p-anisidine value) ([3]; 6 days): 9.9
- CD (conjugated dienoic acid in %) ([3]; 8 days): 0.8%
- PV (peroxide value) ([3]; 8 days): 8.8
- p-AV (p-anisidine value) ([3]; 8 days): 10.3
- CD (conjugated dienoic acid in %) ([3]; 11 days): 0.9%
- PV (peroxide value) ([3]; 11 days): 11.2
- p-AV (p-anisidine value) ([3]; 11 days): 10.5
- CD (conjugated dienoic acid in %) ([3]; 13 days): 0.8%
- PV (peroxide value) ([3]; 13 days): 15
- p-AV (p-anisidine value) ([3]; 13 days): 10.5
- CD (conjugated dienoic acid in %) ([3]; 15 days): 0.8%
- PV (peroxide value) ([3]; 17 days): 19.2
- p-AV (p-anisidine value) ([3]; 17 days): 11
- CD (conjugated dienoic acid in %) ([3]; Initial): 0.7%
- PV (peroxide value) ([3]; Initial): 0.9
- p-AV (p-anisidine value) ([3]; Initial): 9.9
- OSI values in algal oil compared with MNT [4]: clearly lower OSI values than those of MNT
- prooxidant effect in algal oil [4]: possible prooxidant effect
- OSI ([5]; Table 14, 80° C., 0.5 mg/g): 5.75 h
- OSI ([5]; Table 14, 80° C., 2 mg/g): 6.05 h
- Protection Factor (%) ([5]; Table 17, 0.5 mg/g): 26.37%
- Protection Factor (%) ([5]; Table 17, 2 mg/g): 32.97%
- OSI [5, 6]: 8.93 h
- OSI ([5]; Table 20, 2 mg/g, without AP): 6.30 h
- Protection Factor (%) [5, 7]: 92.8%
- Protection Factor (%) ([5]; Table 22, 2 mg/g, without AP): 36.1%
- antioxidant effect (OSI) in fish oil compared with MNT [5]: comparable to the antioxidative effect of MNT

Source: US20210030022A1, “NOVEL USE OF SUBSTITUTED CHROMAN-6-OLS” (DSM IP ASSETS B.V., priority 2018, published 2021)
